Data from ChEMBL document CHEMBL1129906, “Synthesis and binding affinity of new muscarinic ligands structurally related to oxotremorine” (Bioorg Med Chem Lett, 1997).

Legend:
[1] = target: T1, Muscarinic acetylcholine receptor M2 (Rattus norvegicus, UniProt P10980); test: Binding affinity against Muscarinic receptor M2 in rat brain using [3H]QNB (quinuclidinyl benzylate) radioligand at a concentration of 0.12 nM; assay type: tissue-based
T1 sequence (P10980 whole entry): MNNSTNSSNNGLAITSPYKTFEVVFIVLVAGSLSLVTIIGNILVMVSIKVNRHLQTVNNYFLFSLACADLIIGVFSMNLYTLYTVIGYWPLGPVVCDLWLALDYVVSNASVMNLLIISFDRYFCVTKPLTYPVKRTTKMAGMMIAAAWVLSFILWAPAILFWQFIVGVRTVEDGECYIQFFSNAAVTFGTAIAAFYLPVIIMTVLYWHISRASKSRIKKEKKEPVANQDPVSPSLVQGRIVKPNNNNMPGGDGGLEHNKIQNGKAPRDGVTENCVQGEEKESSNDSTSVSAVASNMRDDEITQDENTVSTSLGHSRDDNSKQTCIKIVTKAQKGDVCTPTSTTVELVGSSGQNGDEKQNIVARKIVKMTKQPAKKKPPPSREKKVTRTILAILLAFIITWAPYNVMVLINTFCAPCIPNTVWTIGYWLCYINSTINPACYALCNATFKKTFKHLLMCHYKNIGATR

[2] = target: T2, Muscarinic acetylcholine receptor M1 (Rattus norvegicus, UniProt P08482); test: Binding affinity against Muscarinic receptor M1 in rat brain using [3H]-PZ (pirenzepine) radioligand at a concentration of 1 nM; assay type: tissue-based
T2 sequence (P08482 whole entry): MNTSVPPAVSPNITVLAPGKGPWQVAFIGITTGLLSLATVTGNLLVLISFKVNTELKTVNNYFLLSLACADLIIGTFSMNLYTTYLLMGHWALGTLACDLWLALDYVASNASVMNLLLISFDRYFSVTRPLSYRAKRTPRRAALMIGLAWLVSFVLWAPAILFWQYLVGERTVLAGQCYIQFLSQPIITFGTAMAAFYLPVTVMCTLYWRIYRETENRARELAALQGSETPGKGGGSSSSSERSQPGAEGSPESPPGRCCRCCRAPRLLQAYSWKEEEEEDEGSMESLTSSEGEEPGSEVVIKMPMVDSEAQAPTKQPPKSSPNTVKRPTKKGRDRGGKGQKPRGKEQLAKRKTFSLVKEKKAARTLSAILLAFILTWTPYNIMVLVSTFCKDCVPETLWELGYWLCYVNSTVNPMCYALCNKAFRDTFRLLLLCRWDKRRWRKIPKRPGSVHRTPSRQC

[3] = target: Muscarinic acetylcholine receptor; test: Compound was assessed for the binding affinity against muscarinic receptor subtypes in rat brain using [3H]OXO-M radioligand as a muscarinic receptor agonist at a concentration of 0.2 nM; assay type: tissue-based
[4] = target: T1, Muscarinic acetylcholine receptor M2; test: Muscarinic receptor M2 in rat heart using [3H]QNB (quinuclidinyl benzylate) radioligand as a M2 non-selective muscarinic receptor antagonist at a concentration of 0.12 nM
[5] = Selectivity for was determined by the displacement of [3H]PZ in rat brain preparations; expressed as ratio of M1/M2; assay type: tissue-based

Row | Structure (SMILES) | IC50 [1] [nM] | IC50 [2] [nM] | IC50 [3] [nM] | IC50 [4] [nM] | Selectivity ratio [5]
1 | O=C1CCON1CC#CCN1CCCC1 | 2800 | 78 | 1.6 | 215 | 
2 | O=C1CCCN1CC#CCN1CCCC1 [OXOTREMORINE] | 2000 | 100 | 2 | 84 | 
3 | CN(C)CC#CCN1OCCC1=O | 101000 | 7100 | 23 | 1380 | 41.2
4 | C(#CCN1CCCC1)COC1=NOCC1 | 8600 | 412 | 4 | 233 | 
5 | C[N+](C)(C)CC#CCN1OCCC1=O | 17400 | 1300 | 0.8 | 74 | 140
